According to US20160208339A1, “BIOMARKERS CORRELATED TO PARP INHIBITOR TREATMENT SUCCESS IN AML PATIENTS” (KING'S COLLEGE LONDON, priority 2013, published 2016):

Legend:
NB4-LR2 = test: Colony assay in methylcellulose, ATRA resistant APL cell model; type: cell-based, human; conditions: Olaparib 5 μM, methylcellulose 7 days
Protocol: (§1) FIG. 2 AML1-ETO and PML-RARα leukemic cells are sensitive to PARPi. A) Representative scheme of experimental procedures. B) Non linear regression dose response curve. Normal bone marrow c-kit cells and pre-leukaemic cells expressing the oncofusion proteins AML1-ETO, E2A-PBX, MLL-AF9 and PML-RARα were grown in methylcellulose for 7 days with escalating doses of PARPi. Data representative of three independent experiments are shown. C) Percentage of survival of preleukemic cells to PARPi. The number of colonies surviving to seven days incubation with PARPi treatment was normalized against the untreated control. Data representative of six independent experiments are shown ±SD. […] D) Colony morphology (phase contrast microscopy, magnification 40×). Representative pictures are shown. E) Efficiency of PARP1 Knock down (KD) in NIH3T3 cells infected with retroviral vectors expressing shRNA against mouse PARP1. qPCR data showing expression of PARP1 mRNA in NIH3T3 after infection with sh-mPARP1. Data representative of two independent experiments are shown ±SD. Paired two-tailed t test was performed between empty vector and i) scramble, ii) sh-PARP1-A and iii) sh-PARP1-D*p<0.05. F) Efficiency of PARP1 by Western Blot. Western Blot data showing protein level of PARP1 in NIH3T3 after infection with sh-mPARP1. […]

NB4-MR2 = test: as above; type: cell-based, human; conditions: Olaparib 5 μM, methylcellulose 7 days
Protocol: as §1

[1] = test system: Kasumi human cells expressing the oncogene AML1-ETO; test: Survival of NSG mice injected intra-femur with Kasumi human cells; type: in vivo
Protocol: (§2) A) Kaplan-Meier survival curve relative to NSG mice injected with NB4 human cells. NB4 human cells expressing the oncogene PML-RARα were injected intravenously in NSG mice and distributed in two groups. […] Treatment was performed for two weeks. Mice were monitored daily until the development of symptoms of leukaemia, when bone marrow (B), spleen (C) and liver (D) were harvested, processed, stained with PE-conjugated antibody against human CD33 and analysed by FACS, to quantify the human cell engraftment in these organs. E) Kaplan-Meier survival curve relative to NSG mice injected with Kasumi human cells. Kasumi human cells expressing the oncogene AML1-ETO were injected intra-femur in NSG mice and distributed in two groups. […] Treatment was performed for two weeks. Mice were monitored daily until the development of symptoms of leukaemia, when bone marrow (F), spleen (G) and liver (H) were harvested, processed, stained with PE-conjugated antibody against human CD33 and analysed by FACS, to quantify the human cell engraftment in these organs. I) and J Kaplan-Meier survival curves of FVB and C57Bl/6 mice injected with M4-PML-RARα and MLL-AF9 cells, respectively. ATRA resistant M4-PML-RARα cells were injected intravenously in FVB mice and distributed in three groups. […] Mice were monitored daily until the development of symptoms of leukaemia, when bone marrow (K), spleen (L) and liver (M) were harvested, processed, stained with PE-conjugated antibody against mouse Gr1 and analysed by FACS, to quantify the human cell engraftment in these organs. […]
(§3) In order to test the efficacy of this treatment in vivo, we transplanted Kasumi and NB4 cell lines into a small cohort of sublethally irradiated NOD/SCID/IL2Rg−/− (NSG) mice by intra-femoral and intravenous injection, respectively. […] The maximum dose tolerated was calculated by in vivo dose-response experiments. Mice were monitored daily until they developed symptoms of leukaemia, when they were culled and bone marrow, spleen and liver harvested and analyzed by FACS. […]

[2] = test system: NB4 human cells expressing the oncogene PML-RARα; test: Survival of NSG mice injected intravenously with NB4 human cells; type: in vivo
Protocol: as §2, §3

[3] = test system: AML1-ETO transformed cells; test: Clonogenic assay in methylcellulose, RTTA-transformed primary leukaemic cells; type: cell-based, mouse
Protocol: (§4) FIG. 2 AML1-ETO and PML-RARα leukemic cells are sensitive to PARPi. A) Representative scheme of experimental procedures. B) Non linear regression dose response curve. Normal bone marrow c-kit cells and pre-leukaemic cells expressing the oncofusion proteins AML1-ETO, E2A-PBX, MLL-AF9 and PML-RARα were grown in methylcellulose for 7 days with escalating doses of PARPi. Data representative of three independent experiments are shown. C) Percentage of survival of preleukemic cells to PARPi. The number of colonies surviving to seven days incubation with PARPi treatment was normalized against the untreated control. Data representative of six independent experiments are shown ±SD. […] D) Colony morphology (phase contrast microscopy, magnification 40×). Representative pictures are shown. E) Efficiency of PARP1 Knock down (KD) in NIH3T3 cells infected with retroviral vectors expressing shRNA against mouse PARP1. qPCR data showing expression of PARP1 mRNA in NIH3T3 after infection with sh-mPARP1. Data representative of two independent experiments are shown ±SD. Paired two-tailed t test was performed between empty vector and i) scramble, ii) sh-PARP1-A and iii) sh-PARP1-D*p<0.05. F) Efficiency of PARP1 by Western Blot. Western Blot data showing protein level of PARP1 in NIH3T3 after infection with sh-mPARP1. G) Efficiency of PARP1 KD in leukemic cells infected with retroviral vectors expressing shRNA against mouse PARP1. qPCR data showing expression of PARP1 mRNA in leukemic cells after infection with sh-mPARP1. Data representative of three independent experiments are shown ±SD. 2-way Anova test was performed between empty vector and i) scramble, ii) sh-PARP1-A and iii) sh-PARP1-D*p<0.05, **p<0.01, ***p<0.001. H) Relative number of colonies arisen from leukemic cells transformed by indicated oncoproteins after shPARP1-mediated KD. Bone marrow cells were co-transduced with retroviral vectors carrying the oncogene of interest and empty vector or sh-scramble or shPARP1. The number of colonies was normalized against the empty vector control. Data representative of three independent experiments are shown ±SD. 2-way Anova test was performed between empty vector and i) scramble, ii) sh-PARP1-A and iii) sh-PARP1-D*p<0.05, **p<0.01, ***p<0.001. I) Colony morphology from phase contrast microscopy (magnification 40×). Representative pictures are shown. […] The number of colonies after PARPi treatment was normalized against the untreated control. Data representative of three independent experiments are shown ±SD. […] K) Colony morphology (phase contrast microscopy, magnification 20×). Representative pictures are shown. […] The number of colonies after PARPi treatment was normalized against the untreated control. Data representative of three independent experiments are shown ±SD. […] M) Colony morphology (phase contrast microscopy, magnification 20×). Representative pictures are shown. […] The number of colonies after PARPi treatment was normalized against the untreated control. Data representative of three independent experiments are shown ±SD. […] O) Colony morphology (phase contrast microscopy, magnification 20×). Representative pictures are shown.
(§5) Briefly, c-kit positive progenitor cells of wild type Ly5.1 mouse bone marrow transduced with a retroviral vector expressing the LATFs of interest were plated into a methylcellulose medium supplemented with appropriate myeloid cytokines. Replating was performed every week to generate primary cell lines for further analysis. […] Veliparib is an inhibitor of PARP1/2 produced by Abbott and widely used in clinical trials.

[4] = test system: PML-RARα transformed cells; test: as above; type: cell-based, mouse
Protocol: as §4, §5

MLL-AF9 cells = test: C57Bl/6 mice injected with leukaemic MLL-AF9 cells; type: in vivo; conditions: Olaparib 50 mg/kg intra-peritoneal daily for two weeks
Protocol: as §2, with “organs.” for “organs. I) and J Kaplan-Meier survival curves of FVB and C57Bl/6 mice injected with M4-PML-RARα and MLL-AF9 cells, respectively. ATRA resistant M4-PML-RARα cells were injected intravenously in FVB mice and distributed in three groups.”

[5] = test system: ATRA resistant M4-PML-RARα cells; test: ATRA resistant mouse model, FVB mice injected with M4-PML-RARα cells; type: in vivo; conditions: Olaparib 50 mg/kg intra-peritoneal daily for two weeks
Protocol: as §2, with “organs.” for “organs. I) and J Kaplan-Meier survival curves of FVB and C57Bl/6 mice injected with M4-PML-RARα and MLL-AF9 cells, respectively. ATRA resistant M4-PML-RARα cells were injected intravenously in FVB mice and distributed in three groups.”

[6] = test system: breast, prostate and ovarian cancer patients carrying mutations in BRCA1 or BRCA2 genes; conditions: phase I and phase II trials; cited from earlier work
Kasumi = test: Colony assay in methylcellulose, human cell line; type: cell-based; conditions: Olaparib 1-5 μM, methylcellulose 7 days
Protocol: as §1

NB4 = test: Colony assay in methylcellulose, human cell line; type: cell-based; conditions: Olaparib 1-5 μM, methylcellulose 7 days
Protocol: as §1

[7] = test system: untargeted population of ovarian cancer; conditions: phase II; cited from earlier work
bone marrow c-kit+ cells = test: PARPi titration, colony assay in methylcellulose, normal bone marrow cells; type: cell-based; conditions: Mus musculus, Bone marrow cell, 168 h; colonies counted after seven days in methylcellulose; nonlinear regression
Protocol: FIG. 1 PARPi titration. A) PARPi titration in normal bone marrow c-kit cells grown in methylcellulose for 7 days. Data representative of three independent experiments are shown ±SD. […] B) Non linear regression dose response curve, obtained by logarithmic transformation of the data presented in the panel A. C) Colony morphology (contrast microscopy magnification 40×). Representative pictures are shown.
Bone marrow cells were treated with escalating doses of Olaparib in methylcellulose. After seven days colonies were counted. The number of colonies obtained in the untreated condition was set as the top value (100%). The bottom value (0) was calculated as the lowest concentration resulting in no colonies. The data where then analyzed in a nonlinear regression dose-response curve (FIG. 1).

[8] = test system: E2A-PBX transformed cells; test: Clonogenic assay in methylcellulose, RTTA-transformed primary leukaemic cells; type: cell-based, mouse; conditions: 1 μM, methylcellulose 7 days
Protocol: as §4, §5

[9] = test system: MLL-AF9 transformed cells; test: as above; type: cell-based, mouse; conditions: 1 μM, methylcellulose 7 days
Protocol: as §4, §5

[10] = Olaparib 25 mg/kg daily for two weeks, FACS human CD33
[11] = Olaparib 25 mg/kg intra-peritoneal daily for two weeks

O=C(c1cc(Cc2n[nH]c(=O)c3ccccc23)ccc1F)N1CCN(C(=O)C2CC2)CC1 [Olaparib, 4-[(3-[(4-cyclopropylcarbonyl)piperazin-4-yl]carbonyl)-4-fluorophenyl]methyl(2H)-phthalazin-1-one]
sensitivity (colony number) (NB4-LR2): extremely sensitive | sensitivity (colony number) (NB4-MR2): extremely sensitive | engraftment in bone marrow, spleen and liver [1, 10]: variable reduction | onset of the leukaemia [1, 11]: significantly delayed | median survival ([1]; Olaparib 25 mg/kg intra-peritoneal daily for two weeks, control 50 days, experiment still ongoing): 115 days | engraftment in bone marrow, spleen and liver [2, 10]: variable reduction | onset of the leukaemia [2, 11]: significantly delayed | median survival ([2]; Olaparib 25 mg/kg intra-peritoneal daily for two weeks, control 30 days): 47 days | IC50 ([3]; Mus musculus, 168 h): 33.4 nM | reduction in colony forming ability ([3]; Olaparib 1 uM, p<0.05): 70-90% | reduction of number of colonies after additional replating ([3]; replating in semi-solid medium containing Olaparib, p<0.05): 90% | IC50 ([4]; Mus musculus, 168 h): 15.8 nM | reduction in colony forming ability ([4]; Olaparib 1 uM, p<0.05): 70-90% | effect on mice developing leukaemia (MLL-AF9 cells): did not have any significant effect | onset of the leukaemia [5]: significantly delayed | anti-tumour effect [6]: anti-tumour effect | side effects [6]: grade 1 or 2 | efficacy on colony number (Kasumi): confirm the efficacy | efficacy on colony number (NB4): confirm the efficacy | overall survival benefit compared to chemotherapy [7]: failed to show overall survival benefit | IC50 (bone marrow c-kit+ cells): 1900 nM

C[C@]1(c2nc3c(C(N)=O)cccc3[nH]2)CCCN1 [Veliparib, 2-((R)-2-methylpyrrolidin-2-yl)-1H-benzimidazole-4-carboxamide]
effect on colonies [8]: no effect | effect on colonies ([3]; 1 μM, methylcellulose 7 days): reduced colonies | effect on colonies [9]: no effect | effect on colonies ([4]; 1 μM, methylcellulose 7 days): reduced colonies
